The source of these data is patent US20120189673A1, “POLYPEPTIDES AND USES THEREOF” (priority 2009, published 2012).

In the experiment the test system is RAW 264.7 macrophages. The experiment is described as follows: NO production in RAW 264.7 macrophages stimulated with LPS or other microbial products (Griess reaction). The class given is cell-based, mouse. Here is the method:
Effects of various microbial products on macrophages in vitro and anti-inflammatory effects by various peptides of HCII and TFPI. 3.5×10^5 cells were seeded in 96-well tissue culture plates (Nunc, 167008) in phenol red-free DMEM (Gibco) supplemented with 10% FBS and antibiotics. Following 6 hours of incubation to permit adherence, cells were stimulated with 10 ng/mL E. coli (0111:B4) LPS (Sigma), lipoteichoic acid, peptioglycan, or zymosan, with and without peptides at the indicated doses (se figure legends and figures). The levels of NO in culture supernatants were determined after 24 hours from stimulation using the Griess reaction. Briefly, nitrite, a stable product of NO degradation, was measured by mixing 50 μl of culture supernatants with the same volume of Griess reagent (Sigma, G4410) and reading absorbance at 550 nm after 15 min. Phenol-red free DMEM with FBS and antibiotics were used as a blank. A standard curve was prepared using 0-80 μM sodium nitrite solutions in ddH20.
LPS effects on macrophages in vitro—[…] cells were seeded in 96-well tissue culture plates (Nunc, 167008) in phenol red-free DMEM (Gibco) supplemented with 10% FBS containing 1% Anti-Anti (Invitrogen). Following 20 hours of incubation to permit adherence, cells were washed and stimulated with 10 ng/ml E. coli (0111:B4) or P. aeruginosa LPS (Sigma), with and without the peptides GGL27, GGL27(S), and DSE25 of various doses. The levels of NO in culture supernatants were determined after 24 hours from stimulation using the Griess reaction (27). Briefly, nitrite, a stable product of NO degradation, was measured by mixing 50 μl of culture supernatants with the same volume of Griess reagent (Sigma, G4410) and reading absorbance at 550 nm after 15 min. Phenol-red free DMEM with FBS and antibiotics were used as a blank. A standard curve was prepared using 0-80 μM sodium nitrite solutions in ddH20.
(Nitrite, measured by Griess reagent, commonly stands in for NO production.)

“Also recorded” adds a separate entry of the source.

For “GGLIKTKRKRKKQRVKIAYEEIFVKNM [GGL27, C-terminal peptide of TFPI, plasmin-generated]”, the “anti-endotoxic effects in vitro” value is reported as “anti-endotoxic effects”. For the same sequence, the “LPS-mediated NO release” value (LPS from E. coli or P. aeruginosa, peptide at indicated concentrations (FIG. 41C)) is “inhibits NO production; also recorded: inhibited LPS-mediated NO-release”.
